Reference: patent publication US9388199B2, “Pyrrolidine derivatives and their use as complement pathway modulators” (priority 2012, dated 2016)

Target: Recombinant human factor D (Homo sapiens (Human), UniProt P00746)
Test: Human Complement Factor D Assay: Method 1
Format: biochemical
Conditions: 10 nM factor D, substrate Z-Lys-thiobenzyl, fluorescence readout, read-out: IC50 (μM), Factor D inhibition
Procedure: Human Complement Factor D Assay: Method 1
Recombinant human factor D (expressed in E. coli and purified using standard methods) at 10 nM concentration is incubated with test compound at various concentrations for 1 hour at room temperature in 0.1 M Hepes buffer, pH 7.5, containing 1 mM MgCl2, 1 M NaCl and 0.05% CHAPS. A synthetic substrate Z-Lys-thiobenzyl and 2,4-dinitrobenzenesulfonyl-fluoresceine are added to final concentrations of 200 μM and 25 μM, respectively. The increase in fluorescence is recorded at excitation of 485 nm and emission at 535 nm in a microplate spectrofluorimeter. IC50 values are calculated from percentage of inhibition of complement factor D-activity as a function of test compound concentration.

Chain of Recombinant human factor D (P00746 26-253): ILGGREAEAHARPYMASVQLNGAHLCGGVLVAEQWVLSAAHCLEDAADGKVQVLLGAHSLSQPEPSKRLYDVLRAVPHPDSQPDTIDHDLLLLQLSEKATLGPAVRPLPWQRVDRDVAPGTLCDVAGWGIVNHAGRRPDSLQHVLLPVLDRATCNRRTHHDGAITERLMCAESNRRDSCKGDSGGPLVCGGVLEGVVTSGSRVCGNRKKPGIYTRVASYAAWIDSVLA

Row | IC50 | Structure (SMILES)
1 | 0.912 µM | NC(=O)n1cc(NC(=O)N2[C@@H]3C[C@@H]3C[C@H]2C(=O)NCCCOC(F)(F)F)c2ccccc21 [Example 25, (1R,3S,5R)-2-Aza-bicyclo [3.1.0]hexane-2,3-dicarboxylic acid 2-[(1-carbamoyl-1H-indol-3-yl)-amide] 3-[(3-trifluoromethoxy-propyl)-amide]]
2 | 0.058 µM | CC(C)(C)CCNC(=O)[C@@H]1C[C@H]2C[C@H]2N1C(=O)Nc1cn(C(N)=O)c2ccccc12 [Example 21, (1R,3S,5R)-2-Aza-bicyclo[3.1.0]hexane-2,3-dicarboxylic acid 2-[(1-carbamoyl-1H-indol-3-yl)-amide]3-[(3,3-dimethyl-butyl)-amide]]
3 | 7.22 µM | CCNC(=O)[C@@H]1C[C@H]2C[C@H]2N1C(=O)Cn1nc(C(N)=O)c2ccncc21 [Example 12, 1-[2-((1R,3S,5R)-3-Ethylcarbamoyl-2-aza-bicyclo [3.1.0]hex-2-yl)-2-oxo-ethyl]-1H-pyrazolo[3,4-c]pyridine-3-carboxylic acid amide]
4 | 0.168 µM | CC(C)(C)CCNC(=O)[C@@H]1C[C@H]2C[C@H]2N1C(=O)Cn1nc(C(N)=O)c2ccncc21 [Example 6, 1-{2-[(1R,3S,5R)-3-(3,3-Dimethyl-butylcarbamoyl)-2-aza-bicyclo[3.1.0]hex-2-yl]-2-oxo-ethyl}-1H-pyrazolo[3,4-c] pyridine-3-carboxylic acid amide]

Row | Structure (SMILES) | IC50
5 | CC[C@H](C)NC(=O)[C@@H]1C[C@H]2C[C@H]2N1C(=O)Cn1nc(C(C)=O)c2cc(OCc3ncccn3)ccc21 [Example 19, (1R,3S,5R)-2-{2-[3-Acetyl-5-(pyrimidin-2-ylmethoxy)-indazol-1-yl]-acetyl}-2-aza-bicyclo[3.1.0]hexane-3-carboxylic acid ((S)-sec-butyl)-amide] | 0.929 µM
